From US20200338229A1, “ANTIMICROBIAL ADHESIVE DRESSINGS” (priority 2015, published 2020)
Like-named read-outs stand apart in the source and are kept apart here.

Tests used:
[1] = in the presence of light; cited from earlier work
[2] = cited from earlier work
[3] = in the silicone adhesive of this invention

Polyhexamethylene biguanide [PHMB]
pH range of stability [1]: 4-10 pH
temperature up to which stable [1]: up to 80 °C
solubility ([2]; in oils and hydrocarbons and silicone elastomers): not soluble
solubility ([2]; in water, alcohols and glycols): soluble
stability to autoclaving ([3]; autoclaving at 121° C.): stable
stability to curing temperature ([3]; curing temperature of 140° C.): stable
